Source: US12319655B2, “RAF kinase inhibitors and methods of use thereof” (Deciphera Pharmaceuticals, LLC, priority 2021, dated 2025)
Where two headings read alike, the source gives them in different places.

Tests used:
Miapaca-2 cells = test: MiaPaca-2 Cell Proliferation Assay (1); type: cell-based; details: Homo sapiens, MIA PaCa-2, single agent, read-out: MiaPaca2 (1) IC50
In short: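 Resazurin was added after compound exposure and incubated 5-6 h, then fluorescence read at 540 nm excitation and 600 nm emission to give IC50.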

[1] = biological target: C-Raf kinase (SEQ. ID NO: 3) (Homo sapiens (Human), UniProt P04049, Y340D/Y341D); test: Biochemical Assay for C-Raf (1); details: Table J
Sequence of C-Raf kinase (SEQ. ID NO: 3) (P04049 307-648 Y340D/Y341D): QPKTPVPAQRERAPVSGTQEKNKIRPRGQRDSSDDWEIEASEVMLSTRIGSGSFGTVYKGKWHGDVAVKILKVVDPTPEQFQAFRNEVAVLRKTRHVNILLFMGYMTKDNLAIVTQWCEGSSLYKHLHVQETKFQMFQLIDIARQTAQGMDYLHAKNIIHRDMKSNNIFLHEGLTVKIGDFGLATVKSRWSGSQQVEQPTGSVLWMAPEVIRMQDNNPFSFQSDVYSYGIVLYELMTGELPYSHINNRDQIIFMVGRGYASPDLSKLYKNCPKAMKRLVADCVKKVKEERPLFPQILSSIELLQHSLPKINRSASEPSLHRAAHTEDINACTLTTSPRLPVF
In short: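 Coupled pyruvate kinase/LDH assay tracking NADH oxidation at 340 nm, with 0.43 nM C-Raf, 30.1 nM MEK and 1 mM ATP in pH 7.5 Tris buffer (15 mM MgCl2, 1% DMSO final). Read continuously for 6 h at 30 °C, rate taken from the 4–5 h window. IC50 from four-parameter fit of percent inhibition.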

WM3928 cells = test: WM3928 Cell Proliferation Assay (1); type: cell-based
In short: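 IC50 was derived from resazurin fluorescence (ex 540, em 600 nm) after a 6–7 h dye incubation. Before that, cells had 67–72 h of compound exposure at 37 °C, 5% CO2.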

[2] = biological target: B-Raf kinase (SEQ. ID NO: 2) (Homo sapiens (Human), UniProt P15056); test: Biochemical Assay for B-Raf (1); details: Table J
Sequence of B-Raf kinase (SEQ. ID NO: 2) (P15056 416-766): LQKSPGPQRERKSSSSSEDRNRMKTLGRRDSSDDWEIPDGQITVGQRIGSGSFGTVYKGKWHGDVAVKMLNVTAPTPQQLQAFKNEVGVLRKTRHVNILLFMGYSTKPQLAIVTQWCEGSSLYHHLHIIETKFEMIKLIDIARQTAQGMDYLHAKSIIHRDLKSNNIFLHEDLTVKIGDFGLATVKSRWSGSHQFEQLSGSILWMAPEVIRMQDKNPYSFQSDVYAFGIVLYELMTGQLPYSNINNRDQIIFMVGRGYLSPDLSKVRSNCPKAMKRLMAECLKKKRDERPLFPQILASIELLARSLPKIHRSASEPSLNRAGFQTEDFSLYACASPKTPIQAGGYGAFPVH
In short: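 Continuous PK/LDH-coupled NADH oxidation assay, A340 read for 6 h at 30° C., with 0.13 nM B-Raf, 30.1 nM MEK substrate and 1 mM ATP in Tris pH 7.5, MgCl2, DTT, detergents, 1% DMSO. Rate taken from 4–5 h window; percent inhibition vs no-compound and known-inhibitor controls; four-parameter fit gives IC50.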

[3] = assay version (1), read-out: CRAF (1) IC50
[4] = assay version (1), read-out: BRAF (1) IC50
[5] = biochemical assay (1), read-out: CRAF (1)
[6] = biochemical assay (1), read-out: BRAF (1)

Structure (SMILES) | IC50 (Miapaca-2 cells) | IC50 [1, 3] | IC50 (WM3928 cells) | IC50 [2, 4] | IC50 [1, 5] | IC50 [2, 6]
CCOc1ncc(-c2cc(NC(=O)c3ccnc(C(F)(F)F)c3)ccc2C)cc1-c1ccnc(NC(C)=O)c1 [Example 68] | 1000 to 10000 nM | ≤ 100 nM | ≤ 100 nM | ≤ 100 nM |  | 
CCOc1ncc(-c2cc(NC(=O)c3ccnc(C(F)(F)F)c3)ccc2C)cc1-c1ccnc(C(=O)NC)c1 [Example 69] | 1000 to 10000 nM | 100 to 500 nM | ≤ 100 nM | 100 to 500 nM |  | 
CCOc1ncc(-c2cc(NC(=O)c3ccnc(C(F)(F)F)c3)ccc2C)cc1-c1ccnc(NC(=O)C2CC2)c1 [Example 71] | 1000 to 10000 nM | 100 to 500 nM | ≤ 100 nM | 100 to 500 nM |  | 
Cc1cc(-c2cc(NC(=O)c3ccnc(C(F)(F)F)c3)ccc2F)cc(-c2ccnc(NC(=O)C3CC3)c2)n1 [Example 72] | 1000 to 10000 nM | ≤ 100 nM | 100 to 500 nM | ≤ 100 nM |  | 
CNC(=O)c1cc(-c2cc(-c3cc(C(=O)Nc4ccnc(C(C)(C)C#N)c4)ccc3C)ccn2)ccn1 [Example 74] | 1000 to 10000 nM | 100 to 500 nM | 100 to 500 nM | 500 to 1000 nM |  | 
Cc1ccc(NC(=O)c2ccnc(C(C)(C)C#N)c2)cc1-c1cccc(-c2cc(NC(=O)C3CC3)ncn2)c1 [Example 77] | 1000 to 10000 nM | ≤ 100 nM | ≤ 100 nM | ≤ 100 nM |  | 
CNC(=O)c1cc(-c2nccc(-c3cc(NC(=O)c4ccnc(C(C)(C)C#N)c4)ccc3C)n2)ccn1 [Example 78] | 1000 to 10000 nM | ≤ 100 nM | ≤ 100 nM | 100 to 500 nM |  | 
Cc1ccc(NC(=O)c2ccnc(C(F)(F)F)c2)cc1-c1cccc(-c2cc(NC(=O)C3CC3)ncn2)c1 [Example 80] | 1000 to 10000 nM | ≤ 100 nM | 100 to 500 nM | ≤ 100 nM |  | 
Cc1ccc(NC(=O)c2ccnc(C(C)(C)C#N)c2)cc1-c1ccnc(-c2ccnc(N)c2)n1 [Example 82] | 1000 to 10000 nM | ≤ 100 nM | 1000 to 10000 nM | ≤ 100 nM |  | 
CNC(=O)c1cc(-c2cc(-c3cc(NC(=O)c4ccnc(C(F)(F)F)c4)ccc3C)ncn2)ccn1 [Example 85] | 1000 to 10000 nM | ≤ 100 nM | 1000 to 10000 nM | ≤ 100 nM |  | 
CNC(=O)c1cc(-c2cncc(-c3cc(NC(=O)c4ccnc(C(C)(C)C#N)c4)ccc3C)n2)ccn1 [Example 86] | 1000 to 10000 nM | ≤ 100 nM | ≤ 100 nM | 100 to 500 nM |  | 
COCC(=O)Nc1cc(-c2nccc(-c3cc(NC(=O)c4ccnc(C(C)(C)C#N)c4)ccc3C)n2)ccn1 [Example 88] | 1000 to 10000 nM | ≤ 100 nM | ≤ 100 nM | ≤ 100 nM |  | 
CC(=O)Nc1cc(-c2cc(-c3cc(NC(=O)c4ccnc(C(C)(C)C#N)c4)ccc3C)nc(C)n2)ccn1 [Example 89] | 1000 to 10000 nM | ≤ 100 nM | ≤ 100 nM | 100 to 500 nM |  | 
CNC(=O)c1cc(-c2cncc(-c3cc(NC(=O)c4ccnc(C(C)(C)F)c4)ccc3C)c2)ncn1 [Example 379] | 1000 to 10000 nM |  | ≤ 100 nM |  | ≤ 100 nM | 100 to 500 nM
COC(=O)Nc1cc(-c2cncc(-c3cc(NC(=O)c4ccnc(C(C)(C)F)c4)c(F)cc3C)c2)ccn1 [Example 384] | 1000 to 10000 nM |  | ≤ 100 nM |  | ≤ 100 nM | ≤ 100 nM
COC(=O)Nc1cc(-c2nccc(-c3cc(NC(=O)c4ccnc(C(C)(C)F)c4)ccc3C)n2)ccn1 [Example 391] | 1000 to 10000 nM |  | ≤ 100 nM |  | ≤ 100 nM | ≤ 100 nM
CNC(=O)c1cc(-c2cncc(-c3cc(NC(=O)c4ccnc(C5(C#N)CC5)c4)ccc3C)c2)ncn1 [Example 393] | 1000 to 10000 nM |  | ≤ 100 nM |  | ≤ 100 nM | ≤ 100 nM
Cc1ccc(NC(=O)c2ccnc(C(C)(C)F)c2)cc1-c1cncc(-c2cc(NC(=O)C3CC3)ncn2)c1 [Example 394] | 100 to 500 nM |  | ≤ 100 nM |  | ≤ 100 nM | ≤ 100 nM
